The record followed here is ChEMBL document CHEMBL6109087, “Design and synthesis of azole derivatives of echinocystic acid as α-glucosidase inhibitors with hypoglycemic activity” (Eur J Med Chem, 2025).

The target in series [1] is Alpha-glucosidase (Saccharomyces cerevisiae S288c) (UniProt P53341+P38158+P07265). Briefly: Inhibition of alpha-glucosidase using 4-Nitrophenyl-[…]-D-glucopyranoside (pNPG) as substrate assessed as inhibition rate at 30 uM relative control. The series is classed as protein assay.
In the next series the target is Alpha-glucosidase (Saccharomyces cerevisiae S288c, UniProt P53341+P38158+P07265). As to the kind of experiment: Inhibition of alpha-glucosidase using 4-Nitrophenyl-[…]-D-glucopyranoside (pNPG) as substrate. The format is protein assay.
Series [2] is described as follows: Cytotoxicity against human LO2 cells assessed as cell viability measured after 24 hrs by MTT assay. The series is classed as toxicity, cell-based, L02.
Series [3] relates to alpha-glucosidase (unknown origin). As to the kind of experiment: Selectivity index, ratio of CC50 for Cytotoxicity against human LO2 cells to IC50 for alpha-glucosidase (unknown origin). The format is toxicity, cell-based, L02. To be noted: read-out: Selectivity Index.

Molecules are shown by their SMILES.

For the molecule `COc1ccc(-n2cc(CNC(=O)COC(=O)[C@]34CCC(C)(C)C[C@H]3C3=CC[C@@H]5[C@@]6(C)CC[C@H](O)C(C)(C)[C@@H]6CC[C@@]5(C)[C@]3(C)C[C@H]4O)nn2)cc1`, the inhibition in series [1] stood at 51.4%. Moreover, the IC50 against Alpha-glucosidase is more than 30 µM.
For the molecule `CC1(C)CC[C@]2(C(=O)OCC(=O)NCc3cn(-c4ccc(Cl)c(Cl)c4)nn3)[C@H](O)C[C@]3(C)C(=CC[C@@H]4[C@@]5(C)CC[C@H](O)C(C)(C)[C@@H]5CC[C@]43C)[C@@H]2C1`, in series [1], the inhibition is 87.3%. The molecule further gave a half-maximal inhibitory concentration (IC50) against Alpha-glucosidase of 3.4 µM. For the same molecule, in series [2], the CC50 at 24 h turned out to be 198 µM. The selectivity ratio in series [3] stood at 58.3.
With `COc1cc(-c2nnc(COC(=O)[C@]34CCC(C)(C)C[C@H]3C3=CC[C@@H]5[C@@]6(C)CC[C@H](O)C(C)(C)[C@@H]6CC[C@@]5(C)[C@]3(C)C[C@H]4O)o2)cc(OC)c1OC`, the inhibition in series [1] was determined as 49.1%. For the same molecule, the IC50 against Alpha-glucosidase was more than 30 µM.
Regarding `CC1(C)CC[C@]2(C(=O)OCC(=O)NCc3cn(-c4ccccc4)nn3)[C@H](O)C[C@]3(C)C(=CC[C@@H]4[C@@]5(C)CC[C@H](O)C(C)(C)[C@@H]5CC[C@]43C)[C@@H]2C1`, the inhibition in series [1] was found to be 59.9%. At Alpha-glucosidase, this molecule yielded a 50% inhibitory concentration (IC50) of 21.7 µM.
In the same order, the values of `COc1cc(-n2cc(CNC(=O)[C@]34CCC(C)(C)C[C@H]3C3=CC[C@@H]5[C@@]6(C)CC[C@H](O)C(C)(C)[C@@H]6CC[C@@]5(C)[C@]3(C)C[C@H]4O)nn2)cc(OC)c1OC` are 6.67% and more than 30 µM.
With `CC1(C)CC[C@]2(C(=O)OCc3nc(-c4ccccc4)no3)[C@H](O)C[C@]3(C)C(=CC[C@@H]4[C@@]5(C)CC[C@H](O)C(C)(C)[C@@H]5CC[C@]43C)[C@@H]2C1`, in series [1], the inhibition turned out to be 58.3%. Besides, at Alpha-glucosidase, the IC50 is 26.2 µM.
Turning to `CC1(C)CC[C@]2(C(=O)OCc3nc(-c4ccc(Cn5cncn5)cc4)no3)[C@H](O)C[C@]3(C)C(=CC[C@@H]4[C@@]5(C)CC[C@H](O)C(C)(C)[C@@H]5CC[C@]43C)[C@@H]2C1`, in series [1], the inhibition came out at 10.5%. This molecule yielded an IC50 at Alpha-glucosidase of more than 30 µM.
As for `CC1(C)CC[C@]2(C(=O)OCC(=O)NCc3cn(-c4ccc(Br)cc4)nn3)[C@H](O)C[C@]3(C)C(=CC[C@@H]4[C@@]5(C)CC[C@H](O)C(C)(C)[C@@H]5CC[C@]43C)[C@@H]2C1`, the inhibition in series [1] is 68%. For the same molecule, the IC50 on Alpha-glucosidase worked out at 23.62 µM.
In the same order, the values of `Cc1ccc(-n2cc(CNC(=O)[C@]34CCC(C)(C)C[C@H]3C3=CC[C@@H]5[C@@]6(C)CC[C@H](O)C(C)(C)[C@@H]6CC[C@@]5(C)[C@]3(C)C[C@H]4O)nn2)cc1` are 63% and 21.25 µM.
Consider `CC1(C)CC[C@]2(C(=O)OCc3nnc(-c4ccc(Cl)c(Cl)c4)o3)[C@H](O)C[C@]3(C)C(=CC[C@@H]4[C@@]5(C)CC[C@H](O)C(C)(C)[C@@H]5CC[C@]43C)[C@@H]2C1`, for which the inhibition in series [1] came to 69.8%. The same molecule gave a 50% inhibitory concentration (IC50) against Alpha-glucosidase of 17.25 µM.
The matching figures for `CC1(C)CC[C@]2(C(=O)OCc3nnc(-c4ccc(Cl)cc4)o3)[C@H](O)C[C@]3(C)C(=CC[C@@H]4[C@@]5(C)CC[C@H](O)C(C)(C)[C@@H]5CC[C@]43C)[C@@H]2C1`: 67.3% and 21.94 µM.
Take `CC1(C)CC[C@]2(C(=O)OCCn3ncn(-c4ccc(Cl)c(Cl)c4)c3=O)[C@H](O)C[C@]3(C)C(=CC[C@@H]4[C@@]5(C)CC[C@H](O)C(C)(C)[C@@H]5CC[C@]43C)[C@@H]2C1`: the inhibition in series [1] was 80.3%. Also, the half-maximal inhibitory concentration (IC50) against Alpha-glucosidase was determined as 3.42 µM. Besides, the CC50 at 24 h in series [2] was 66.8 µM. Besides, the selectivity ratio in series [3] came to 19.5.
As to `CC1(C)CC[C@]2(C(=O)OCCn3ncn(-c4ccc(F)cc4)c3=O)[C@H](O)C[C@]3(C)C(=CC[C@@H]4[C@@]5(C)CC[C@H](O)C(C)(C)[C@@H]5CC[C@]43C)[C@@H]2C1`, the inhibition in series [1] was found to be 56.9%. The same molecule came in with an IC50 against Alpha-glucosidase of 29.32 µM.
In the case of `CC1(C)CC[C@]2(C(=O)OCCn3ncn(-c4ccccc4)c3=O)[C@H](O)C[C@]3(C)C(=CC[C@@H]4[C@@]5(C)CC[C@H](O)C(C)(C)[C@@H]5CC[C@]43C)[C@@H]2C1`, the inhibition in series [1] was 46.1%. The 50% inhibitory concentration (IC50) against Alpha-glucosidase was more than 30 µM.
Regarding `CC1(C)CC[C@]2(C(=O)OCc3nc(-c4ccc(F)cc4)no3)[C@H](O)C[C@]3(C)C(=CC[C@@H]4[C@@]5(C)CC[C@H](O)C(C)(C)[C@@H]5CC[C@]43C)[C@@H]2C1`, the inhibition in series [1] came to 64.6%. This molecule also had a half-maximal inhibitory concentration (IC50) on Alpha-glucosidase of 16.01 µM.
Take `CC1(C)CC[C@]2(C(=O)OCC(=O)NCc3cn(-c4ccc(F)cc4)nn3)[C@H](O)C[C@]3(C)C(=CC[C@@H]4[C@@]5(C)CC[C@H](O)C(C)(C)[C@@H]5CC[C@]43C)[C@@H]2C1`: the inhibition in series [1] amounted to 61.5%. The molecule further came in with an IC50 against Alpha-glucosidase of 18.52 µM.
For `CC1(C)CC[C@]2(C(=O)OCCn3ncn(-c4ccc(Cl)cc4)c3=O)[C@H](O)C[C@]3(C)C(=CC[C@@H]4[C@@]5(C)CC[C@H](O)C(C)(C)[C@@H]5CC[C@]43C)[C@@H]2C1`, in series [1], the inhibition turned out to be 47.7%. This molecule showed an IC50 against Alpha-glucosidase of 28.69 µM.
The matching figures for `CC1(C)CC[C@]2(C(=O)NCc3cn(-c4ccccc4)nn3)[C@H](O)C[C@]3(C)C(=CC[C@@H]4[C@@]5(C)CC[C@H](O)C(C)(C)[C@@H]5CC[C@]43C)[C@@H]2C1`: 55.9% and 22.72 µM.
Consider `CC1(C)CC[C@]2(C(=O)NCc3cn(-c4ccc(Cl)cc4)nn3)[C@H](O)C[C@]3(C)C(=CC[C@@H]4[C@@]5(C)CC[C@H](O)C(C)(C)[C@@H]5CC[C@]43C)[C@@H]2C1`, for which the inhibition in series [1] came out at 69.2%. The molecule also yielded an IC50 against Alpha-glucosidase of 21.19 µM.
For the molecule `COc1ccc(-n2cc(CNC(=O)[C@]34CCC(C)(C)C[C@H]3C3=CC[C@@H]5[C@@]6(C)CC[C@H](O)C(C)(C)[C@@H]6CC[C@@]5(C)[C@]3(C)C[C@H]4O)nn2)cc1`, the inhibition in series [1] amounted to 48.5%. The molecule also had an IC50 against Alpha-glucosidase of more than 30 µM.
As to `CC1(C)CC[C@]2(C(=O)OCC(=O)NCc3cn(-c4ccc(Cl)cc4)nn3)[C@H](O)C[C@]3(C)C(=CC[C@@H]4[C@@]5(C)CC[C@H](O)C(C)(C)[C@@H]5CC[C@]43C)[C@@H]2C1`, the inhibition in series [1] is 63.3%. The molecule also came in with an IC50 against Alpha-glucosidase of 18.18 µM.
Consider `COc1ccc(-c2nnc(COC(=O)[C@]34CCC(C)(C)C[C@H]3C3=CC[C@@H]5[C@@]6(C)CC[C@H](O)C(C)(C)[C@@H]6CC[C@@]5(C)[C@]3(C)C[C@H]4O)o2)cc1`, for which the inhibition in series [1] was 56.5%. The molecule also gave an IC50 at Alpha-glucosidase of 22.28 µM.
The matching figures for `CC1(C)CC[C@]2(C(=O)NCc3cn(-c4ccc(F)cc4)nn3)[C@H](O)C[C@]3(C)C(=CC[C@@H]4[C@@]5(C)CC[C@H](O)C(C)(C)[C@@H]5CC[C@]43C)[C@@H]2C1`: 47.7% and more than 30 µM.
The matching figures for `CC1(C)CC[C@]2(C(=O)OCc3nnc(-c4ccccc4)o3)[C@H](O)C[C@]3(C)C(=CC[C@@H]4[C@@]5(C)CC[C@H](O)C(C)(C)[C@@H]5CC[C@]43C)[C@@H]2C1`: 57.2% and 19.36 µM.
As to `CC1(C)CC[C@]2(C(=O)OCc3nc(-c4ccc(Cl)c(Cl)c4)no3)[C@H](O)C[C@]3(C)C(=CC[C@@H]4[C@@]5(C)CC[C@H](O)C(C)(C)[C@@H]5CC[C@]43C)[C@@H]2C1`, in series [1], the inhibition turned out to be 36.5%. Besides, at Alpha-glucosidase, the IC50 was more than 30 µM.
